Test results: patent US9499519B2, “Fused pyrimidine compounds and use thereof” (Medivation Technologies, Inc., priority 2012, dated 2016)

System: Akt phosphorylation induced by IGF-1R
Assay: Western blot analysis of Akt phosphorylation induced by IGF-1 in HT-29 cells
Assay type: cell-based, Human
Conditions: for Levels of phosphorylated AKT in treated cells (pAKT/actin): HT-29 cells, IGF-1; for p-AKT relative to levels with 0.1 nM compound: Table B2 lower part; for Normalized phosphorylated AKT (relative to actin) levels relative to 0.1 nM compound treatment: Table B2 upper part
Experimental: Inhibition of Akt phosphorylation induced by IGF-1R was studied by western blot analysis. Human colon carcinoma HT-29 cells were seeded at a density of 8×10^4 cells/well in a 24-well plate and grown in DME/F12 media containing 10% FBS for 24 h. The cells were then depleted of serum by incubation in DME/F12 media lacking FBS for 24 h. […] […] Lysed cells were centrifuged at 13,000 rpm for 15 min and the protein concentration soluble fraction (supernatant) of each sample was determined using a BCA protein assay (Pierce).

Row | Compound | Levels of phosphorylated AKT in treated cells (pAKT/actin) (0.1 nM compound) | p-AKT relative to levels with 0.1 nM compound (0.1 nM) | Normalized phosphorylated AKT (relative to actin) levels relative to 0.1 nM compound treatment (0.1 nM) | Levels of phosphorylated AKT in treated cells (pAKT/actin) (1 nM compound) | p-AKT relative to levels with 0.1 nM compound (1 nM) | Normalized phosphorylated AKT (relative to actin) levels relative to 0.1 nM compound treatment (1 nM) | Levels of phosphorylated AKT in treated cells (pAKT/actin) (10 nM compound) | p-AKT relative to levels with 0.1 nM compound (10 nM) | Normalized phosphorylated AKT (relative to actin) levels relative to 0.1 nM compound treatment (10 nM) | Levels of phosphorylated AKT in treated cells (pAKT/actin) (100 nM compound) | p-AKT relative to levels with 0.1 nM compound (100 nM) | Normalized phosphorylated AKT (relative to actin) levels relative to 0.1 nM compound treatment (100 nM)
1 | O=C(Nc1cccnc1)C1CCCN1c1nc2c(c(Nc3cc(C4CC4)[nH]n3)n1)CCC2 (single isomer, unassigned) [Compound 3a, 1-(4-(5-cyclopropyl-1H-pyrazol-3-ylamino)-6,7-dihydro-5H-cyclopenta[d]pyrimidin-2-yl)-N-(pyridin-3-yl)pyrrolidine-2-carboxamide] | 2.64 | 1.0 | 1.0 | 1.68 | 0.6 | 0.6 | 1.86 | 0.7 | 0.7 | 2.19 | 0.8 | 0.8
2 | O=C(Nc1ccc(F)nc1)C1CCCN1c1nc2c(c(Nc3cc(C4CC4)[nH]n3)n1)CCCC2 (single isomer, unassigned) [Compound 14a, 1-(4-(5-cyclopropyl-1H-pyrazol-3-ylamino)-5,6,7,8-tetrahydroquinazolin-2-yl)-N-(6-fluoropyridin-3-yl)pyrrolidine-2-carboxamide] | 0.73 | 1.0 | 1.0 | 0.51 | 0.7 | 0.7 | 0.43 | 0.6 | 0.6 | 0.35 | 0.5 | 0.5
3 | O=C(Nc1cncnc1)C1CCCN1c1nc2c(c(Nc3cc(C4CC4)[nH]n3)n1)CCC2 (racemic) [Compound 7, 1-(4-(3-cyclopropyl-1H-pyrazol-5-ylamino)-6,7-dihydro-5H-cyclopenta[d]pyrimidin-2-yl)-N-(pyrimidin-5-yl)pyrrolidine-2-carboxamide] | 1.45 | 1.0 | 1.0 | 2.08 | 1.4 | 1.4 | 1.09 | 0.7 | 0.7 | 1.20 | 0.8 | 0.8
4 | O=C(Nc1ccc(F)nc1)C1CCCN1c1nc2c(c(Nc3cc(C4CC4)[nH]n3)n1)CCCC2 (single isomer, unassigned) [Compound 14b, 1-(4-(5-cyclopropyl-1H-pyrazol-3-ylamino)-5,6,7,8-tetrahydroquinazolin-2-yl)-N-(6-fluoropyridin-3-yl)pyrrolidine-2-carboxamide] | 0.51 | 1.0 | 1.0 | 0.49 | 0.9 | 0.9 | 0.02 | 0.0 | 0.0 | 0.00 | 0.0 | 0.0
